Consider 13 compounds from US20050250853A1, “Beta-tubulin inhibitors” (priority 1999, published 2005).

“Also recorded” adds a separate entry of the source.

The subject of data set [1] is β-tubulin. The data set is described as follows: Separation of soluble and polymerized tubulins, Western blot of β-tubulin. To be noted: MDA-MB-231 cells, 30 μM, 24 h and 48 h; for formation of modified β-tubulin (second immunoreactive band of lower Mr): free tubulin fraction. In kind it is cell-based, human. As for the experimental part: FIG. 2. Effects of CEU derivatives on microtubule depolymerization. Exponentially growing MDA-MB-231 cells were incubated in the absence or the presence of 30 μM of CEU derivatives including (A) 4-tBCEU, 4-iPCEU or 4-sBCEU for 24 and 48 h respectively; (B) 2-ECEU, 3-ECEU or 4-ECEU for 24 and 48 h; and (C) 4-tBEU, 4-iPEU, 4-sBEU, 4-tBCPU, CEU or 4-methoxyCEU for 48 h. Free tubulin and microtubule fractions were isolated and analyzed by Western blot. Data are representative of three different experiments.
Separation of soluble and polymerized tubulins from MDA-MB231 cells was carried out as described by Minotti et al. (14) with minor modifications. Briefly, after drug exposure, about 5×10^6 cells in 100-mm petri dishes were washed with PBS at 37° C. and harvested in 3 ml of PBS containing 0.4 μg/ml of taxol using a rubber policeman.
Cells were centrifuged and lysed using 250 μl of microtubule-stabilizing buffer (20 mM Tris-HCl, pH 6.8, 140 mM NaCl, 1 mM MgCl2, 2 mM EDTA, 0.5% Nonidet P-40 and 0.4 μg/ml taxol), and then transferred to 1.5 ml microcentrifuge tubes. Samples were centrifuged at 12,000×g for 10 min at 4° C. and the supernatants containing soluble tubulin were placed in separate microcentrifuge tubes containing 250 μl of 2× Laemmli sample buffer (15). Pellets containing the polymerized tubulin were resuspended in 250 μl of water, followed by two freeze/thawing cycles, and the addition of 250 μl of 2× Laemmli sample buffer. Samples were analyzed by SDS-PAGE and immunoassay was performed as described below.
(§1) Samples (1×10^5 cells) were analyzed by 10% SDS-PAGE using the Laemmli system (15). Membranes were then incubated with PBSMT (PBS, pH 7.4, 5% fat-free dry milk and 0.1% Tween-20) for 1 h at room temperature, and then with 1:500 monoclonal anti-β-tubulin (clone TUB 2.1, Sigma) or 1:400 anti (clone no. SDL.3D10, Sigma) for 1 h. […] Membranes were washed with PBSMT and incubated with 1:2500 peroxidase-conjugated anti-mouse immunoglobulin (Amersham Canada, Oakville, Canada) in PBSMT for 30 min. Detection of the immunoblot was carried out with the ECL Western blotting detection reagent kit (Amersham Canada, Oakville, Canada).
In general terms: A western blot detects proteins with antibodies after separation by electrophoresis.

For data set [2], the system named is MDA-MB-231 cells. The data set is described as follows: cells. In kind it is cell-based, human. As for the experimental part:
(§2) Human breast carcinoma cell line, MDA-MB-231, was obtained from the American Type Culture Collection (ATCC HTB-26; Bethesda, Md.). MDA-MB-231 cells were grown in RPMI 1640 medium supplemented with 10% bovine calf serum (Hyclone, Road Logan, Utah). Wild-type Chinese Hamster Ovary cells (CHO-10001) (7), colchicine- and vinblastine-resistant (CHO-VV 3-2) (8) and taxol-resistant (CHO-TAX 5-6) cells (9) were generously provided by Dr. Fernando Cabral (University of Texas Medical School, Houston, Tex.). These cells were cultured in RPMI 1640 containing 10% fetal bovine serum. SK—N—SH human neuroblastoma cells, (ATCC HTB-11; Bethesda, Md.) were cultured in MEM medium supplemented with 2 mM L-glutamine, 1.5 g/liter sodium bicarbonate, 0.1 mM non-essential amino acids, 1 mM sodium pyruvate and 10% fetal bovine serum. Cells were cultured in a humidified atmosphere at 37° C. in 5% CO2.
(§3) Cytotoxicity was assessed using the MTT assay (3-(4,5-dimethylthiazol-2-yl)-2,5-diphenyltetrazolium bromide) as described by Carmichael et al. (12).

In data set [3] the test system is MDA-MB-231 cells. The data set is described as follows: Cell cycle analysis by propidium iodide flow cytometry. It is filed as cell-based, human. To be noted: CEU derivatives at 30 μM, 24 h; flow cytometry. The method, then:
FIG. 1. Effect of CEU derivatives on cell cycle. Exponentially growing MDA-MB-231 cells were incubated in the absence or presence of 30 μM of either 4-tBCEU, 4-iPCEU or 4-sBCEU for 24 and 48 h, respectively, at 37° C. The cell cycle was evaluated using propidium iodide staining and flow cytometric analysis. Data are representative of three independent experiments.
Following incubation of MDA-MB-231 cells with 4-tBCEU, 4-iPCEU or 4-sBCEU, the cells were harvested, resuspended in 1 ml PBS and fixed by the addition of 2.4 ml of ice cold anhydrous ethanol. Then, 5×10^5 cells from each sample were centrifuged for 3 min at 1000×g. Cell pellets were resuspended in PBS containing 50 μg/ml of PI and 40 U/ml of ribonuclease A (Boehringer Mannheim, Laval, Calif.). Mixtures were incubated at room temperature for 30 min and cell cycle distribution was analyzed using an Epics Elite ESP flow cytometer (Coulter Corporation, Miami, Fla., USA).
The effect of CEU, namely 4-tBCEU, 4-PCEU and 4-sBCEU, on the cell cycle was analyzed. To this end, exponentially growing MDA-MB-231 cells were treated with 30 μM 4-tBCEU, 4-iPCEU or 4-sBCEU for 24 or 48 h followed by an evaluation of cell cycle distribution by flow cytometry using propidium iodide, a fluorescent DNA dye. […] Induction of mitosis blockage in prophase by CEU derivatives was confirmed by mitotic index analysis as described by Drouin (22).
Background: Flow cytometry measures light scatter and fluorescence of single cells or particles in a stream.

Data set [4] deals with CHO 10001 cells (wild-type). The data set is described as follows: MTT cytotoxicity on wild-type CHO cells. In kind it is cell-based, Chinese hamster. To be noted: Cricetulus griseus, CHO10001; wild-type CHO cells, 120 h, MTT, mean ± SD; read-out: IC50 CHO 10001. As for the experimental part: as §2, with “Wild-type Chinese Hamster Ovary cells (CHO-10001) (7), colchicine- and vinblastine-resistant (CHO-VV 3-2) (8) and taxol-resistant (CHO-TAX 5-6) cells (9) were generously provided by Dr. Fernando Cabral (University of Texas Medical School, Houston, Tex.).” left out
as §3
(§4) The cytotoxicity of 4-tBCEU, 4-iPCEU and 4-sBCEU in two CHO cell lines having differential sensitivity to antmicrotubule agents was evaluated. These cell lines are derived from parental CHO-10001 cells and express mutated tubulins.

For another data set, the system named is CHO TAX 5-6 cells. The data set is described as follows: MTT cytotoxicity on taxol-resistant CHO cells expressing mutated tubulin. To be noted: Cricetulus griseus, CHO-TAX 5-6; taxol-resistant CHO cells, 120 h, MTT, mean ± SD; read-out: IC50 CHO TAX 5-6. It is filed as cell-based, Chinese hamster. The method, then: as §2, with “Wild-type Chinese Hamster Ovary cells (CHO-10001) (7), colchicine- and vinblastine-resistant (CHO-VV 3-2) (8) and taxol-resistant (CHO-TAX 5-6) cells (9) were generously provided by Dr. Fernando Cabral (University of Texas Medical School, Houston, Tex.).” left out
as §3, §4

A further data set concerns CHO VV 3-2 cells. Kind of data set: MTT cytotoxicity on vinblastine- and colchicine-resistant CHO cells expressing mutated tubulin. It is filed as cell-based, Chinese hamster. To be noted: Cricetulus griseus, CHO-VV 3-2; vinblastine- and colchicine-resistant CHO cells, 120 h, MTT, mean ± SD; read-out: IC50 CHO VV 3-2. As for the experimental part:
as §2, with “Wild-type Chinese Hamster Ovary cells (CHO-10001) (7), colchicine- and vinblastine-resistant (CHO-VV 3-2) (8) and taxol-resistant (CHO-TAX 5-6) cells (9) were generously provided by Dr. Fernando Cabral (University of Texas Medical School, Houston, Tex.).” left out
as §3, §4

Data set [5] concerns β-tubulin. Kind of data set: Competition with antimicrotubule agents for the site of β-tubulin alkylation. The settings on record: for effect of competitor on formation of modified β-tubulin induced by CEU: MDA-MB-231 cells, 48 h, 30 μM CEU with 5 μM taxol, colchicine or vinblastine or 100 μM iodoacetamide. It is filed as cell-based, human. As for the experimental part: FIG. 6. Identification of the site of alkylation of β-tubulin by CEU: competition with antimicrotubule agents. […] Data are representative of three different experiments.
as §1
The latter agents were used because they have well defined binding sites on β-tubulin (24-28) and because they were expected to inhibit alkylation by CEU if they shared a common binding site. […] These putative alkylation sites are two nucleophilic mercapto groups of cysteine residues at positions 239 and 354, respectively (25). To assess the possible alkylation of these mercapto residues by CEU, MDA-MB-231 cells were treated with 4-tBCEU in the presence of iodoacetamide, a specific thiol alkylating agent (31, 32). […] Similar experiments were carried out using EBI, a bifunctional alkylating agent that specifically induces cross-linking between Cys239 and Cys354 of β-tubulin (32).

Consider `CCNC(=O)Nc1ccc(C(C)(C)C)cc1` [Example 4-tBEU, 4-tert-butyl[3-(ethyl)ureido]benzene], for which, in the data set with β-tubulin [1], the microtubule depolymerization result is given as “no depolymerization” and the “formation of modified β-tubulin (second immunoreactive band of lower Mr)” value is recorded as “no effect on β-tubulin”.
For “4-sec-butyl[3-(ethyl)ureido]benzene [Example 4-sBEU]”, the “cytotoxicity in words (active / inactive CEU)” value in the data set on MDA-MB-231 cells [2] is “inactive”. Further, in the data set with β-tubulin [1], the microtubule depolymerization entry is reported as “no depolymerization” and the “formation of modified β-tubulin (second immunoreactive band of lower Mr)” value is given as “no effect on β-tubulin”.
Turning to `COc1cc2c(c(OC)c1OC)-c1ccc(OC)c(=O)cc1[C@@H](NC(C)=O)CC2` [Colchicine, reference compound], the “accumulation of cells in G2+M” value in the data set with MDA-MB-231 cells [3] is listed as “G2+M block”.
With `CCc1cccc(NC(=O)NCCCl)c1` [Example 3-ECEU, 3ethyl[3-(2-chloroethyl)ureido]benzene], in the data set on β-tubulin [1], the microtubule depolymerization entry was “delayed in time” and the “formation of modified β-tubulin (second immunoreactive band of lower Mr)” value is given as “delayed in time”.
As for `CCNC(=O)Nc1ccc(C(C)C)cc1` [Example 4-iPEU, 4-iso-propyl[3-(ethyl)ureido]benzene], in the data set on β-tubulin [1], the microtubule depolymerization entry is “no depolymerization” and the “formation of modified β-tubulin (second immunoreactive band of lower Mr)” value was “no effect on β-tubulin”.
As to `CCc1ccccc1NC(=O)NCCCl` [Example 2-ECEU, 2-ethyl[3-(2-chloroethyl)ureido]benzene], the “cytotoxicity in words (active / inactive CEU)” value in the data set with MDA-MB-231 cells [2] is “inactive”. In addition, in the data set with β-tubulin [1], the microtubule depolymerization entry was “no depolymerization” and the “formation of modified β-tubulin (second immunoreactive band of lower Mr)” value is recorded as “no effect on β-tubulin”.
For orientation: IC50 means the concentration that inhibits the measured activity by half. Turning to `CC[C@]1(O)C[C@@H]2CN(CCc3c([nH]c4ccccc34)[C@@](C(=O)OC)(c3cc4c(cc3OC)N(C)[C@H]3[C@@](O)(C(=O)OC)[C@H](OC(C)=O)[C@]5(CC)C=CCN6CC[C@]43[C@@H]65)C2)C1` [Vinblastine, reference compound], the IC50 in data set [4] stood at 30 ± 3 nM; in the data set with CHO TAX 5-6 cells, 0.021 ± 0.003 µM; with CHO VV 3-2 cells, 94 ± 3 nM. Further, the “accumulation of cells in G2+M” value with MDA-MB-231 cells [3] was “G2+M block”. Further, the “formation of modified β-tubulin (second immunoreactive band of lower Mr)” value with β-tubulin [1] is listed as “no such band”. In addition, in the data set on β-tubulin [5], the “effect of competitor on formation of modified β-tubulin induced by CEU” value (“effect of competitor” below) is “but not vinblastine, prevented formation of the additional β-tubulin band; also recorded: but not vinblastine, prevented the formation of modified β-tubulin”.
Turning to `CCc1ccc(NC(=O)NCCCl)cc1` [Example 4-ECEU, 4-ethyl(3-(2-chloroethyl)ureido]benzene], in the data set with β-tubulin [1], the microtubule depolymerization result is “delayed in time” and the “formation of modified β-tubulin (second immunoreactive band of lower Mr)” value is “delayed in time”.
On to `CC(=O)O[C@H]1C(=O)[C@@]2(C)[C@H]([C@H](OC(=O)c3ccccc3)[C@]3(O)C[C@H](OC(=O)[C@H](O)[C@@H](NC(=O)c4ccccc4)c4ccccc4)C(C)=C1C3(C)C)[C@]1(OC(C)=O)CO[C@@H]1C[C@@H]2O` [Taxol, reference compound], for which the concentration for half-maximal inhibition (IC50) in data set [4] turned out to be 1700 ± 300 nM; in the data set with CHO TAX 5-6 cells, 6.1 µM; in the data set on CHO VV 3-2 cells, 1100 ± 200 nM. Further, the “formation of modified β-tubulin (second immunoreactive band of lower Mr)” value with β-tubulin [1] is listed as “no such band”. For the same compound, the “effect of competitor” value in the data set on β-tubulin [5] is reported as “abrogated the formation of modified β-tubulin”.
With “4-tert-butyl[3-(2-chloropropyl)ureido]benzene [Example 4-tBCPU]”, the “cytotoxicity in words (active / inactive CEU)” value in the data set on MDA-MB-231 cells [2] was “inactive”. In addition, the microtubule depolymerization entry with β-tubulin [1] is “inactive”.
Regarding `NC(=O)CI` [iodoacetamide], the “effect of pre-treatment on β-tubulin alteration induced by EBI” value with β-tubulin [5] (24 h with 5 μM colchicine, 5 μM vinblastine or 100 μM iodoacetamide, then 100 μM EBI for 2 h) is “abrogated”. The “effect of competitor” value with β-tubulin [5] is listed as “completely prevented β-tubulin alkylation by 4-tBCEU”.
For the compound `COc1ccc(NC(=O)NCCCl)cc1` [Example 4-methoxyCEU, 4-methoxy[3-(2-chloroethyl)ureido]benzene], the microtubule depolymerization result in the data set with β-tubulin [1] is “inactive”.
Regarding `O=C(NCCCl)Nc1ccccc1` [CEU], the “cytotoxicity in words (active / inactive CEU)” value in the data set with MDA-MB-231 cells [2] was “inactive”. Moreover, the microtubule depolymerization entry in the data set with β-tubulin [1] is “inactive”.
